pKd: −log10 of the molar value. Several values for one entry are separate records, joined by “and”; a condition that tells them apart may be missing. Identical values can stand only once.
Experiments:
RslTpt1 [1] = target: T1, RslTpt1 (Runella slithyformis, UniProt A0A7U3ZK32); experiment: Isothermal titration calorimetry; format: binding
T1 sequence (A0A7U3ZK32 5-178): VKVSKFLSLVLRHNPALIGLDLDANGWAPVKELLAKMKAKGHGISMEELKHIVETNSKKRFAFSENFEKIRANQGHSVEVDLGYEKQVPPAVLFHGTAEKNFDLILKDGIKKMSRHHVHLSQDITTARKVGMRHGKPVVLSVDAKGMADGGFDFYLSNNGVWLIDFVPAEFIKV

RslTpt1 [2] = target: T1, RslTpt1; experiment: NMR ligand-induced chemical shift perturbations on RslTpt1; format: binding; details: for backbone chemical shift perturbations induced on RslTpt1 (result in words): 15N,1H HSQC, 10 molar equivalents of ligand

SMILES	fold less affinity than NAD^+ (RslTpt1 [1]; ratio of ITC KD values, NADP^+ versus NAD^+)	pKd (RslTpt1 [1]; read-out: apparent KD, ITC, 17°C, approximate value)	average backbone amide chemical shift perturbation Δδ, N-lobe (RslTpt1 [2]; 15N,1H resonances, 4 molar equivalents of NADP^+)	backbone chemical shift perturbations induced on RslTpt1 (result in words) (RslTpt1 [2])
NC(=O)c1ccc[n+]([C@@H]2O[C@H](COP(=O)([O-])OP(=O)(O)OC[C@H]3O[C@@H](n4cnc5c(N)ncnc54)[C@H](OP(=O)(O)O)[C@@H]3O)[C@@H](O)[C@H]2O)c1 [NADP^+]	~30 fold	~3.00	0.02 ± 0.03 ppm and 0.02 ppm	
NC(=O)c1ccc[n+]([C@@H]2O[C@H](COP(=O)([O-])O)[C@@H](O)[C@H]2O)c1 [NMN, β-nicotinamide mononucleotide]				no significant CSPs
NC(=O)c1cccnc1 [Nicotinamide, nicotinamide]				no significant CSPs

— paper PMC8464070 (Nucleic Acids Research, 2021)
